Consider 1 compound from PMC8190080, “Tanshinones induce tumor cell apoptosis via directly targeting FHIT” (Scientific Reports, 2021).

For one experiment, the target named is FHIT truncation TR1 (Homo sapiens, UniProt P49789). The experiment in a line: Cellular MST assay, GFP tagged FHIT truncation TR1. It is filed as binding. The procedure: (§1) Ten million 293 cells overexpressing GFP-tagged FHIT or free GFP were lysed in 0.5 mL M-PER mammalian protein extraction reagent (Thermo Fisher Scientific). Cell lysates were diluted in PBS buffer to a final concentration at which the fluorescent signals of the GFP proteins were suitable for the detection of the Monolith NT.115 instrument (NanoTemper Technologies). A single point screening assay was developed against GFP-FHIT protein to find potential binding molecules from compound libraries (L1021,APExBIO). For binding affinity detection, a 10µL protein sample was mixed with 10µL ligand at various concentrations as indicated. And the purified proteins were labeled by Red- NHS kit in accordance with the manufacturer’s protocol (MO-L011, NanoTemper Technologies). Then the mixture solutions were loaded into NT.115 standard coated capillaries or premium coated capillaries (NanoTemper Technologies), and the MST measurements were performed at 25 °C. The fluorescence signal during the thermophoresis was monitored and the change in fluorescence was analyzed by software. The Kd was calculated by fitting a standard binding curve to the series diluted ligands. And data were analyzed by GraphPad Prism 7.0.

The subject of a further experiment is HCT116 cells. The experiment in a line: Colony formation assay. It is filed as cell-based, human. To be noted: up to 10 µM, 14 days. How it is done:
ENPP1 hydrolase activity detection assay
ENPP1 protein (4ng/µl) was mixed with series diluted compounds as indicated in assay buffer (50mM Tris-HCl, 2mM CaCl2, 2mM MgCl2, pH9.0) in a final DMSO concentration of 1% in a total volume of 20μL. The mixtures were incubated for 30min at 25°C, then 4µM Ap3A was added. After incubation at 25°C for 10min, ENPP1 should be inactivated at 85°C for 5min.
Then the production of ADP in the reaction system was detected by ADP-Glo reagent (V6930, Promega) according to the manufacturer’s protocol in 384-well. Luminescence was read by spark (TECAN), an integration time of 1 second per well. And the data were analyzed by […]
Fluorescent thin layer enzyme assay for ENPP1
Small molecules, when indicated at series concentrations, were mixed with 2.5µM the fluorescent substrate ApppBODIPY. Then, 10nM purified ENPP1 protein was added to the reaction system at 25°C containing 50mM Tris-HCl pH9.0, 2mM CaCl2, 2mM MgCl2. Reaction samples (0.6µL) were spotted on silica TLC plates (Merck) at 60–120s intervals. Plates were air-dried and developed in 2-propanol:NH4OH:1,4-dioxane: H2O (50:35:8:7) as reported before. Developed plates were imaged by fluorescein blot (ChemiDoc, Bio-rad).
Colony formation assay was performed as described before. Briefly, ~200/well single cells were planted into 6-well plate. […]

In experiment [1] the target is T1, ENPP1 (Homo sapiens, UniProt P22413).
T1 sequence (P22413 1-925): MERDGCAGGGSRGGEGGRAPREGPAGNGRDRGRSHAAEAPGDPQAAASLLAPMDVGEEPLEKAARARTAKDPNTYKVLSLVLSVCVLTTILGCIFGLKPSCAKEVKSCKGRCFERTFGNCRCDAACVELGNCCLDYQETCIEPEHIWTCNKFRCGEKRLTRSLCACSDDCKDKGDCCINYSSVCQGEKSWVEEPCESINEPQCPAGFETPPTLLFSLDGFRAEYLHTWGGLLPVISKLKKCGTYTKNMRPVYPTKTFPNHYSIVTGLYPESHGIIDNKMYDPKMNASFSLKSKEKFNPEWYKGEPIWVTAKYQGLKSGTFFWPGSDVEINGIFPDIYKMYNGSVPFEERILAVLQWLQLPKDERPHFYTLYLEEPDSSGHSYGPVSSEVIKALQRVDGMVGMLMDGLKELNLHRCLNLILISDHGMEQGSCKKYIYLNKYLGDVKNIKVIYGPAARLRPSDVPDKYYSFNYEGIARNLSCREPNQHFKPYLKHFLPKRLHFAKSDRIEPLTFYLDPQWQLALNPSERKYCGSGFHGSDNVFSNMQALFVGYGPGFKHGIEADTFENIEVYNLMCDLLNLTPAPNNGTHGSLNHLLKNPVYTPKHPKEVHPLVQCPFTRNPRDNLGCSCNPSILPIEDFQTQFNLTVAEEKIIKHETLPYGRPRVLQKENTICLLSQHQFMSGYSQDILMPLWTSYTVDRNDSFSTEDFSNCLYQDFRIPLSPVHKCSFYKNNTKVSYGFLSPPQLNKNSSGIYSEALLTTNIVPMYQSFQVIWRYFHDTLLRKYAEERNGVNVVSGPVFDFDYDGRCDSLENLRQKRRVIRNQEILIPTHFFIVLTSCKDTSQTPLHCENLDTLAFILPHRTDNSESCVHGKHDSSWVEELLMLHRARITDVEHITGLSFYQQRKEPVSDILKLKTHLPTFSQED
The experiment in a line: ENPP1 hydrolase activity detection assay (Ap3A, ADP-Glo). It is filed as biochemical. To be noted: ENPP1 4 ng/µl, 4 µM Ap3A.

A further experiment has as its target FHIT truncation TR2 (Homo sapiens, UniProt P49789). The experiment in a line: Cellular MST assay, GFP tagged FHIT truncation TR2. The experiment is classed as binding. How it is done:
as §1

Another experiment deals with T2, HINT1 (Homo sapiens, UniProt P49773).
T2 construct: 6xHis (N); made in house; host or cells: E. coli BL21(DE3)
The experiment in a line: MST assay, purified HINT1. It is filed as binding.

The target in experiment [2] is T1, ENPP1. The experiment in a line: MST assay, ENPP1. The experiment is classed as binding.

T2 sequence (P49773 whole entry): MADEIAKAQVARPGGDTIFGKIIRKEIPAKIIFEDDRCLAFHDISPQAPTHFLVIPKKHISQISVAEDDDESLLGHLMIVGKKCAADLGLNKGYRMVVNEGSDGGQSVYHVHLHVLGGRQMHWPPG
FHIT truncation TR2, sequence (P49789 whole entry, the tested form may be a part): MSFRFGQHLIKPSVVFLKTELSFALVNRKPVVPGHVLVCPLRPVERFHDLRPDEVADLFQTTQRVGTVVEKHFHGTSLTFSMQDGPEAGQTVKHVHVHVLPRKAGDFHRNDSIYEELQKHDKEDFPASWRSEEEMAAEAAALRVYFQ
FHIT truncation TR1, sequence (P49789 2-109): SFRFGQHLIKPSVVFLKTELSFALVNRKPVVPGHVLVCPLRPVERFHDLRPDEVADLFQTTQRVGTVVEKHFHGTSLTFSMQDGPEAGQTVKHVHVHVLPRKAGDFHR

Turning to `Cc1c(S(=O)(=O)O)oc2c1C(=O)C(=O)c1c-2ccc2c1CCCC2(C)C` [STS, Sodium tanshinone IIA sulfonate], the Kd at FHIT truncation TR1 was 75.1 µM; on FHIT truncation TR2, 58.2 µM; on ENPP1 [2] it was 27.2 ± 1.96 µM. For the same compound, the “colony formation of HCT116 cells” value in the experiment with HCT116 cells is given as “no effect was detected”. In addition, 57.9 ± 15.1 µM corresponded to half-maximal inhibition on ENPP1 [1] (IC50). In addition, the “direct binding (MST binding curve)” value at HINT1 is on record as “no direct binding curve was observed”.
